Data published in US20250127801A1, “BRIDGED TRICYCLIC CARBAMOYLPYRIDONE COMPOUNDS AND USES THEREOF” (priority 2023, published 2025).
In brackets after ≈: the same amount, converted by molar mass. Read-outs that look alike come from different tables or passages of the source.

What was measured:
in vivo = conditions: male, beagle, dog, po, 175 mg
in vitro = conditions: human; for CC50 at 5 days: uninfected MT-4 cells
physchem = conditions: 23 °C, thermodynamic from solid; for solubility thermodynamic at 24 h: FaSSIF; for solubility thermodynamic: fassif
HIV-1 (IIIB) = assay: microbe, parasite or virus in culture; assay type: cell-based
[1] = Human immunodeficiency virus 1, MT4, 120 h, HIV-1 (IIIB) replication in MT-4 cells, 5 days incubation, Cell Titer Glo, read-out: MT4 EC50
[2] = Human immunodeficiency virus 1, IIIB, MT4, 120 h, read-out: MT4 EC50 (nM)

SMILES	bioavailability (in vivo)	CC50 at 5 days (in vitro)	solubility thermodynamic at 24 h (physchem)	EC50 (HIV-1 (IIIB); [1])	CC50 (in vitro)	solubility thermodynamic (physchem)	EC50 (HIV-1 (IIIB); [2])
COC1=NO[C@@]2(CC[C@H](C)N3C[C@H]2n2cc(C(=O)NCc4ccc(F)cc4F)c(=O)c(O)c2C3=O)C1 [Intermediate C, (3′S,5S,7′R)—N-(2,4-difluorobenzyl)-12′-hydroxy-3-methoxy-3′-methyl-1′,11′-dioxo-1′,4′,5′,11′-tetrahydro-3′H,4H,7′H-spiro[isoxazole-5,6′-[2,7]methanopyrido[1,2-a][1,4]diazonine]-10′-carboxamide]	14.5%						
CC1=NO[C@@]2(CC[C@H](C)N3C[C@H]2n2cc(C(=O)NCc4ccc(F)cc4F)c(=O)c(O)c2C3=O)C1 [Intermediate B, (3′S,5S,7′R)—N-(2,4-difluorobenzyl)-12′-hydroxy-3,3′-dimethyl-1′,11′-dioxo-1′,4′,5′,11′-tetrahydro-3′H,4H,7′H-spiro[isoxazole-5,6′-[2,7]methanopyrido[1,2-a][1,4]diazonine]-10′-carboxamide]	15.6%						
CC1=NO[C@@]2(CC[C@H](C)N3C[C@H]2n2cc(C(=O)NCc4ccc(F)cc4F)c(=O)c(OCOC(=O)N(C)c4ncccc4COC(=O)[C@@H](N)C(C)C)c2C3=O)C1 [Compound 12, (2-((((((3′S,5S,7′R)-10′-((2,4-difluorobenzyl)carbamoyl)-3,3′-dimethyl-1′,11′-dioxo-1′,4′,5′,11′-tetrahydro-3′H,4H,7′H-spiro[isoxazole-5,6′-[2,7]methanopyrido[1,2-a][1,4]diazonin]-12′-yl)oxy)methoxy)carbonyl)(methyl)amino)pyridin-3-yl)methyl L-valinate]		14.6 µM	2700 µg/mL (≈ 3.47 mM)	4.33 nM			
CCCCCCCCCCCCCC(=O)Nc1ccc(CC(=O)Oc2c3n(cc(C(=O)NCc4ccc(F)cc4F)c2=O)[C@@H]2CN(C3=O)[C@@H](C)CC[C@]23CC(C)=NO3)cc1 [Compound 94, (3′S,5S,7′R)-10′-((2,4-difluorobenzyl)carbamoyl)-3,3′-dimethyl-1′,11′-dioxo-1′,4′,5′,11′-tetrahydro-3′H,4H,7′H-spiro[isoxazole-5,6′-[2,7]methanopyrido[1,2-a][1,4]diazonin]-12′-yl 2-(4-tetradecanamidophenyl)acetate]		≥ 50 µM	19 µg/mL (≈ 0.0229 mM)	3.2 nM			
CC1=NO[C@@]2(CC[C@H](C)N3C[C@H]2n2cc(C(=O)NCc4ccc(F)cc4F)c(=O)c(OCOC(=O)N(C)C[C@@H]4CCCN4)c2C3=O)C1 [Compound 13, (((3′S,5S,7′R)-10′-((2,4-difluorobenzyl)carbamoyl)-3,3′-dimethyl-1′,11′-dioxo-1′,4′,5′,11′-tetrahydro-3′H,4H,7′H-spiro[isoxazole-5,6′-[2,7]methanopyrido[1,2-a][1,4]diazonin]-12′-yl)oxy)methyl methyl(((S)-pyrrolidin-2-yl)methyl)carbamate]		10.8 µM	1980 µg/mL (≈ 3.02 mM)	0.762 nM			
CC1=NO[C@@]2(CC[C@H](C)N3C[C@H]2n2cc(C(=O)NCc4ccc(F)cc4F)c(=O)c(OCOC(=O)O[C@H]4CCC[C@@H]4OP(=O)(O)O)c2C3=O)C1 [Compound 46, (((3′S,5S,7′R)-10′-((2,4-difluorobenzyl)carbamoyl)-3,3′-dimethyl-1′,11′-dioxo-1′,4′,5′,11′-tetrahydro-3′H,4H,7′H-spiro[isoxazole-5,6′-[2,7]methanopyrido[1,2-a][1,4]diazonin]-12′-yl)oxy)methyl ((1S,2S)-2-(phosphonooxy)cyclopentyl) carbonate]		15.1 µM	4850 µg/mL (≈ 6.69 mM)	2.51 nM			
CNCC(=O)OCc1cccnc1N(C)C(=O)OCOc1c2n(cc(C(=O)NCc3ccc(F)cc3F)c1=O)[C@@H]1CN(C2=O)[C@@H](C)CC[C@]12CC(C)=NO2 [Compound 9, (2-((((((3′S,5S,7′R)-10′-((2,4-difluorobenzyl)carbamoyl)-3,3′-dimethyl-1′11′-dioxo-1′,4′,5′,11′-tetrahydro-3′H,4H,7′H-spiro[isoxazole-5,6′-[2,7]methanopyrido[1,2-a][1,4]diazonin]-12′-yl)oxy)methoxy)carbonyl)(methyl)amino)pyridin-3-yl)methyl methylglycinate]		10.5 µM	3240 µg/mL (≈ 4.3 mM)	1.4 nM			
COC(=O)CN(Cc1cccnc1N(C)C(=O)Oc1c2n(cc(C(=O)NCc3ccc(F)cc3F)c1=O)[C@@H]1CN(C2=O)[C@@H](C)CC[C@]12CC(C)=NO2)C(=O)OCOP(=O)(O)O [Compound 34, methyl N-((2-(((((3′S,5S,7′R)-10′-((2,4-difluorobenzyl)carbamoyl)-3,3′-dimethyl-1′,11′-dioxo-1′,4′,5′,11′-tetrahydro-3′H,4H,7′H-spiro[isoxazole-5,6′-[2,7]methanopyrido[1,2-a][1,4]diazonin]-12′-yl)oxy)carbonyl)(methyl)amino)pyridin-3-yl)methyl)-N-(((phosphonooxy)methoxy)carbonyl)glycinate]					12.8 µM	4920 µg/mL (≈ 5.62 mM)	1.4 nM
CC1=NO[C@@]2(CC[C@H](C)N3C[C@H]2n2cc(C(=O)NCc4ccc(F)cc4F)c(=O)c(OCOC(=O)[C@@H]4[C@H](COP(=O)(O)O)[C@H]4C(=O)O)c2C3=O)C1 [Compound 78, (1R,2R,3R)-2-(((((3′S,5S,7′R)-10′-((2,4-difluorobenzyl)carbamoyl)-3,3′-dimethyl-1′,11′-dioxo-1′,4′,5′,11′-tetrahydro-3′H,4H,7′H-spiro[isoxazole-5,6′-[2,7]methanopyrido[1,2-a][1,4]diazonin]-12′-yl)oxy)methoxy)carbonyl)-3-((phosphonooxy)methyl)cyclopropane-1-carboxylic acid]		8.05 µM	5140 µg/mL (≈ 6.95 mM)	2.2 nM			
CCCCCCCCCCCCCC(=O)Oc1ccc(CC(=O)Oc2c3n(cc(C(=O)NCc4ccc(F)cc4F)c2=O)[C@@H]2CN(C3=O)[C@@H](C)CC[C@]23CC(C)=NO3)cc1 [Compound 96, [4-[2-[(1R,10S,13S)-4-[(2,4-difluorophenyl)methylcarbamoyl]-3′,10-dimethyl-5,8-dioxo-spiro[2,9-diazatricyclo[7.4.1.02,7]tetradeca-3,6-diene-13,5′-4H-isoxazole]-6-yl]oxy-2-oxo-ethyl]phenyl] tetradecanoate]		≥ 50 µM	13.5 µg/mL (≈ 0.0162 mM)	2.26 nM			
CC1=NO[C@@]2(CC[C@H](C)N3C[C@H]2n2cc(C(=O)NCc4ccc(F)cc4F)c(=O)c(OC(=O)[C@@H]4CCCN4C(=O)OCOP(=O)(O)O)c2C3=O)C1 [Compound 17, 2-((3′S,5S,7′R)-10′-((2,4-difluorobenzyl)carbamoyl)-3,3′-dimethyl-1′,11′-dioxo-1′,4′,5′,11′-tetrahydro-3′H,4H,7′H-spiro[isoxazole-5,6′-[2,7]methanopyrido[1,2-a][1,4]diazonin]-12′-yl) 1-((phosphonooxy)methyl) (2S)-pyrrolidine-1,2-dicarboxylate]		13 µM	2540 µg/mL (≈ 3.45 mM)	0.93 nM			
CC1=NO[C@@]2(CC[C@H](C)N3C[C@H]2n2cc(C(=O)NCc4ccc(F)cc4F)c(=O)c(OC(=O)N(C)c4ncc(C(=O)O)cc4CN(CC(=O)O)C(=O)OCOP(=O)(O)O)c2C3=O)C1 [Compound 8, 5-(((carboxymethyl)(((phosphonooxy)methoxy)carbonyl)amino)methyl)-6-(((((3′S,5S,7′R)-10′-((2,4-difluorobenzyl)carbamoyl)-3,3′-dimethyl-1′,11′-dioxo-1′,4′,5′,11′-tetrahydro-3′H,4H,7′H-spiro[isoxazole-5,6′-[2,7]methanopyrido[1,2-a][1,4]diazonin]-12′-yl)oxy)carbonyl)(methyl)amino)nicotinic acid]					10.4 µM	4800 µg/mL (≈ 5.3 mM)	0.982 nM
CC1=NO[C@@]2(CC[C@H](C)N3C[C@H]2n2cc(C(=O)NCc4ccc(F)cc4F)c(=O)c(OCOC(=O)N4CCOC[C@H]4COP(=O)(O)O)c2C3=O)C1 [Compound 64, (((3′S,5S,7′R)-10′-((2,4-difluorobenzyl)carbamoyl)-3,3′-dimethyl-1′,11′-dioxo-1′,4′,5′,11′-tetrahydro-3′H,4H,7′H-spiro[isoxazole-5,6′-[2,7]methanopyrido[1,2-a][1,4]diazonin]-12′-yl)oxy)methyl (3S)-3-((phosphonooxy)methyl)morpholine-4-carboxylate]		≥ 50 µM	4840 µg/mL (≈ 6.54 mM)	21.4 nM			
